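Tested at 5 concentrations; 48 h exposure; 96-well plates; endpoints linearly interpolated, else capped at highest concentration. TGI: total growth inhibition.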
Experiments:
Assay in all cases: NCI-60 cell line screen, 48 h
786-0 renal = test system: 786-0 renal
A498 renal = test system: A498 renal
A549 NSCLC = test system: A549 NSCLC
ACHN renal = test system: ACHN renal
BT-549 breast = test system: BT-549 breast
CAKI-1 renal = test system: CAKI-1 renal
CCRF-CEM leukemia = test system: CCRF-CEM leukemia
COLO 205 colon = test system: COLO 205 colon
DU-145 prostate = test system: DU-145 prostate
EKVX NSCLC = test system: EKVX NSCLC
HCC-2998 colon = test system: HCC-2998 colon
HCT-116 colon = test system: HCT-116 colon
HCT-15 colon = test system: HCT-15 colon
HL-60(TB) leukemia = test system: HL-60(TB) leukemia
HOP-62 NSCLC = test system: HOP-62 NSCLC
HS 578T breast = test system: HS 578T breast
HT29 colon = test system: HT29 colon
IGROV1 ovarian = test system: IGROV1 ovarian
K-562 leukemia = test system: K-562 leukemia
KM12 colon = test system: KM12 colon
LOX IMVI melanoma = test system: LOX IMVI melanoma
M14 melanoma = test system: M14 melanoma
MALME-3M melanoma = test system: MALME-3M melanoma
MCF7 breast = test system: MCF7 breast
MDA-MB-231 breast = test system: MDA-MB-231 breast
MDA-MB-435 = test system: MDA-MB-435
MDA-N = test system: MDA-N
MOLT-4 leukemia = test system: MOLT-4 leukemia
NCI-H226 lung = test system: NCI-H226 lung
NCI-H23 lung = test system: NCI-H23 lung
NCI-H460 lung = test system: NCI-H460 lung
NCI-H522 lung = test system: NCI-H522 lung
NCI/ADR-RES ovarian = test system: NCI/ADR-RES ovarian
OVCAR-3 ovarian = test system: OVCAR-3 ovarian
OVCAR-4 ovarian = test system: OVCAR-4 ovarian
OVCAR-5 ovarian = test system: OVCAR-5 ovarian
OVCAR-8 ovarian = test system: OVCAR-8 ovarian
PC-3 prostate = test system: PC-3 prostate
RPMI-8226 leukemia = test system: RPMI-8226 leukemia
SF-268 CNS = test system: SF-268 CNS
SF-295 CNS = test system: SF-295 CNS
SF-539 CNS = test system: SF-539 CNS
SK-MEL-2 melanoma = test system: SK-MEL-2 melanoma
SK-MEL-28 melanoma = test system: SK-MEL-28 melanoma
SK-MEL-5 melanoma = test system: SK-MEL-5 melanoma
SK-OV-3 ovarian = test system: SK-OV-3 ovarian
SN12C renal = test system: SN12C renal
SNB-19 CNS = test system: SNB-19 CNS
SNB-75 CNS = test system: SNB-75 CNS
SR leukemia = test system: SR leukemia
SW-620 colon = test system: SW-620 colon
T-47D breast = test system: T-47D breast
TK-10 renal = test system: TK-10 renal
U251 CNS = test system: U251 CNS
UACC-257 melanoma = test system: UACC-257 melanoma
UACC-62 melanoma = test system: UACC-62 melanoma
UO-31 renal = test system: UO-31 renal
HOP-92 NSCLC = test system: HOP-92 NSCLC

## COC(O)C(=O)c1c2c(cc3c1CCC3)CCCC2 (stereo not drawn)
786-0 renal
  TGI: 27.8 µM
A498 renal
  TGI: 18 µM
A549 NSCLC
  TGI: 40.9 µM
ACHN renal
  TGI: 21 µM
BT-549 breast
  TGI: 6.41 µM
CAKI-1 renal
  TGI: 28.3 µM
CCRF-CEM leukemia
  TGI: 6.69 µM
COLO 205 colon
  TGI: 19.3 µM
DU-145 prostate
  TGI: 30.5 µM
EKVX NSCLC
  TGI: 31.1 µM
HCC-2998 colon
  TGI: 4.28 µM
HCT-116 colon
  TGI: 4.6 µM
HCT-15 colon
  TGI: 13.8 µM
HL-60(TB) leukemia
  TGI: 4.31 µM
HOP-62 NSCLC
  TGI: 33.3 µM
HS 578T breast
  TGI: 36.2 µM
HT29 colon
  TGI: 12.9 µM
IGROV1 ovarian
  TGI: 14 µM
K-562 leukemia
  TGI: 12.7 µM
KM12 colon
  TGI: 34.1 µM
LOX IMVI melanoma
  TGI: 4.95 µM
M14 melanoma
  TGI: 24.9 µM
MALME-3M melanoma
  TGI: 27.8 µM
MCF7 breast
  TGI: 18 µM
MDA-MB-231 breast
  TGI: 27.6 µM
MDA-MB-435
  TGI: 36.7 µM
MDA-N
  TGI: 30.4 µM
MOLT-4 leukemia
  TGI: 14.2 µM
NCI-H226 lung
  TGI: 38 µM
NCI-H23 lung
  TGI: 31.7 µM
NCI-H460 lung
  TGI: 19.7 µM
NCI-H522 lung
  TGI: 13.2 µM
NCI/ADR-RES ovarian
  TGI: 61.5 µM
OVCAR-3 ovarian
  TGI: 14.5 µM
OVCAR-4 ovarian
  TGI: 17.5 µM
OVCAR-5 ovarian
  TGI: 36.7 µM
OVCAR-8 ovarian
  TGI: 25.4 µM
PC-3 prostate
  TGI: 11 µM
RPMI-8226 leukemia
  TGI: 5.63 µM
SF-268 CNS
  TGI: 45.5 µM
SF-295 CNS
  TGI: 26 µM
SF-539 CNS
  TGI: 16.6 µM
SK-MEL-2 melanoma
  TGI: 30.2 µM
SK-MEL-28 melanoma
  TGI: 26.4 µM
SK-MEL-5 melanoma
  TGI: 9.47 µM
SK-OV-3 ovarian
  TGI: 24.6 µM
SN12C renal
  TGI: 19.5 µM
SNB-19 CNS
  TGI: 32.8 µM
SNB-75 CNS
  TGI: 26 µM
SR leukemia
  TGI: 13.9 µM
SW-620 colon
  TGI: 12.3 µM
T-47D breast
  TGI: 44.2 µM
TK-10 renal
  TGI: 29.9 µM
U251 CNS
  TGI: 27.8 µM
UACC-257 melanoma
  TGI: 25.9 µM
UACC-62 melanoma
  TGI: 12.3 µM
UO-31 renal
  TGI: 31.5 µM

## Cc1cc(C)n(-c2nc3ccccc3c(=O)[nH]2)n1
786-0 renal
  TGI: 19.6 µM
A498 renal
  TGI: > 63.8 µM
A549 NSCLC
  TGI: > 35.5 µM
ACHN renal
  TGI: 21.8 µM
BT-549 breast
  TGI: > 100 µM
CAKI-1 renal
  TGI: 37.5 µM
CCRF-CEM leukemia
  TGI: > 100 µM
COLO 205 colon
  TGI: 17.1 µM
DU-145 prostate
  TGI: 21.3 µM
EKVX NSCLC
  TGI: 28.9 µM
HCC-2998 colon
  TGI: 31.3 µM
HCT-116 colon
  TGI: 21.6 µM
HCT-15 colon
  TGI: 23.9 µM
HL-60(TB) leukemia
  TGI: > 33.7 µM
HOP-62 NSCLC
  TGI: > 43.7 µM
HOP-92 NSCLC
  TGI: > 68.3 µM
HS 578T breast
  TGI: > 91.5 µM
HT29 colon
  TGI: > 100 µM
IGROV1 ovarian
  TGI: 12.4 µM
K-562 leukemia
  TGI: > 100 µM
KM12 colon
  TGI: 23.1 µM
LOX IMVI melanoma
  TGI: 13.7 µM
M14 melanoma
  TGI: > 100 µM
MCF7 breast
  TGI: > 100 µM
MDA-MB-231 breast
  TGI: 25.3 µM
MDA-MB-435
  TGI: 26.9 µM
MDA-N
  TGI: > 76.9 µM
MOLT-4 leukemia
  TGI: 50.5 µM
NCI-H226 lung
  TGI: > 66.8 µM
NCI-H23 lung
  TGI: 32.8 µM
NCI-H460 lung
  TGI: > 49.3 µM
NCI-H522 lung
  TGI: 18.8 µM
NCI/ADR-RES ovarian
  TGI: 13.9 µM
OVCAR-3 ovarian
  TGI: > 45 µM
OVCAR-4 ovarian
  TGI: > 100 µM
OVCAR-5 ovarian
  TGI: > 100 µM
PC-3 prostate
  TGI: 25.8 µM
RPMI-8226 leukemia
  TGI: > 41.9 µM
SF-268 CNS
  TGI: > 47.1 µM
SF-295 CNS
  TGI: > 50.7 µM
SF-539 CNS
  TGI: > 75 µM
SK-MEL-2 melanoma
  TGI: 32.2 µM
SK-MEL-28 melanoma
  TGI: > 41.2 µM
SK-MEL-5 melanoma
  TGI: 17.8 µM
SK-OV-3 ovarian
  TGI: > 100 µM
SN12C renal
  TGI: > 100 µM
SNB-19 CNS
  TGI: > 72.1 µM
SNB-75 CNS
  TGI: > 71.6 µM
SR leukemia
  TGI: > 29.5 µM
SW-620 colon
  TGI: 38.9 µM
T-47D breast
  TGI: 48.8 µM
TK-10 renal
  TGI: > 100 µM
U251 CNS
  TGI: > 45.5 µM
UACC-257 melanoma
  TGI: > 100 µM
UACC-62 melanoma
  TGI: 21.3 µM
UO-31 renal
  TGI: 36.8 µM

— PubChem BioAssay (NCI)
